Our source for the EC50 and Activity values is ChEMBL document CHEMBL1151100, “Potential cancer chemopreventive and cytotoxic agents from Pulicaria crispa” (1988).

The test system of assay [1] is KB. Briefly: Cytotoxicity against human KB cells. Type of assay: functional. As to conditions: read-out: ED50 (the source's name).
Assay [2] is described as follows: Anticarcinogenic activity in hamster embryonic cells at 25 ug/mL after 30 mins relative to control. Format: functional, Cricetinae.

In brackets after ≈: the same amount, converted by molar mass.

Regarding `C=C1C(=O)O[C@@H]2C[C@@]3(C)C[C@@H](O)C[C@H](C)C3=C[C@H]12`, the EC50 in assay [1] turned out to be 0.33 µg/mL (≈ 1.33 µM).
The same measure, in the same setting: the result for `C=C1C(=O)O[C@@H]2C[C@@]3(C)C[C@@H](OC(C)=O)C[C@H](C)[C@@]34O[C@H]4[C@H]12` reads 0.05 µg/mL (≈ 0.163 µM); that for `C=C1C(=O)O[C@@H]2C[C@@]3(C)C[C@@H](O)C[C@H](C)[C@@]34O[C@H]4[C@H]12`, 0.4 µg/mL (≈ 1.51 µM).
For the molecule `COc1c(O)cc2oc(-c3ccc(O)c(O)c3)c(OC)c(=O)c2c1O` [AXILLARIN], the Activity in assay [2] is 61.3%.
